Measured values as given in ChEMBL document CHEMBL5584347, “Development of Nitric Oxide Releasing Oxoisoaporphines with Antidepressant Activities by Simultaneously Regulating MAO-A and SERT” (J Med Chem, 2024).
Calls of active or inactive are those of the source. The calls are words filed in the database; no cut-off is given here.

Legend:
Mus musculus [1] = assay: Upregulation of 5-HT level in mouse at 10 mg/kg in presence of isosorbide mononitrate; assay type: functional, organism-based
[2] = Cytotoxicity against rat PC-12 cells incubated for 24 hrs by MTT assay; assay type: toxicity, cell-based
[3] = Cytotoxicity against human SH-SY5Y cells incubated for 24 hrs by MTT assay; assay type: toxicity, cell-based
[4] = Cytotoxicity against human L02 cells incubated for 24 hrs by MTT assay; assay type: toxicity, cell-based
PC-12 = assay: Neuroprotective activity against corticosterone-induced cell injury in rat PC-12 cells assessed as increase in cell viability at 0.1 to 1 uM incubated for 24 hrs by CCK8 assay; assay type: functional, cell-based; conditions: dose 0.1-1 µM
Danio rerio [5] = assay: Antidepressant activity in reserpine-induced depressive zebrafish model assessed as increase in time spend in upper part at 1 uM preadministered with reserpine for 40 mins followed by compound administration and measured after 7 days by novel tank test; assay type: functional, organism-based; conditions: time 7.0 day
Mus musculus [6] = assay: Antidepressant activity in reserpine induced depressive mouse model assessed as 5-HT level in brain at 10 mg/kg preadministered with reserpine for 3 days followed by compound addition from day 4 to 10 by LC-MS analysis (reference value: 186.46 ng/ml); assay type: functional; conditions: time 7 day
Danio rerio [7] = assay: Antidepressant activity in reserpine-induced depressive zebrafish model assessed as increase in speed of movement at 1 uM preadministered with reserpine for 40 mins followed by compound administration and measured after 7 days by open field test; assay type: functional, organism-based; conditions: time 7.0 day
Mus musculus [8] = assay: Antidepressant activity in chronic unpredictable mild stress induced depressive C57 mouse model assessed as increase in movement at 10 mg/kg administered continuously for 2 weeks post 5 weeks of chronic unpredictable mild stress by open field test; assay type: functional, organism-based
Danio rerio [9] = assay: Antidepressant activity in reserpine-induced depressive zebrafish model assessed as increase in total distance traveled at 1 uM preadministered with reserpine for 40 mins followed by compound administration and measured after 7 days by open field test; assay type: functional, organism-based; conditions: time 7.0 day
Danio rerio [10] = assay: Antidepressant activity in reserpine-induced depressive zebrafish model assessed as reduction in immobility time at 1 uM preadministered with reserpine for 40 mins followed by compound administration and measured after 7 days by open field test; assay type: functional, organism-based; conditions: time 7.0 day
Danio rerio [11] = assay: Antidepressant activity in reserpine-induced depressive zebrafish model assessed as increase in total distance traveled at 1 uM preadministered with reserpine for 40 mins followed by compound administration and measured after 7 days by novel tank test; assay type: functional, organism-based; conditions: time 7.0 day
Mus musculus [12] = assay: Antidepressant activity in chronic unpredictable mild stress induced depressive C57 mouse model assessed as increase in total distance traveled at 10 mg/kg administered continuously for 2 weeks post 5 weeks of chronic unpredictable mild stress by open field test; assay type: functional, organism-based
Danio rerio [13] = assay: Antidepressant activity in reserpine-induced depressive zebrafish model assessed as increase in speed of movement at 1 uM preadministered with reserpine for 40 mins followed by compound administration and measured after 7 days by novel tank test; assay type: functional, organism-based; conditions: time 7.0 day
Mus musculus [14] = assay: Upregulation of 5-HT level in mouse at 10 mg/kg in presence of oxoisoaporphines; assay type: functional, organism-based

| SMILES | IC50 at 24 h [2] | IC50 at 24 h [3] | IC50 at 24 h [4] | Activity (PC-12) | further results |
| --- | --- | --- | --- | --- | --- |
| O=C1c2ccccc2-c2nccc3cccc1c23 |  |  |  |  | Activity (Mus musculus [1]): Active |
| O=C1c2ccccc2-c2nccc3cc(OCCCCO[N+](=O)[O-])cc1c23 | > 10 µM | > 100 µM | > 100 µM | Active |  |
| O=C1c2ccccc2-c2nccc3cc(OCCO[N+](=O)[O-])cc1c23 | > 10 µM | > 100 µM | > 100 µM | Active |  |
| O=C1c2ccccc2-c2nccc3cc(OCCCCCCO[N+](=O)[O-])cc1c23 | > 10 µM | > 100 µM | > 100 µM | Active |  |
| CNCCC(Oc1ccc(C(F)(F)F)cc1)c1ccccc1 (configuration not stated) [FLUOXETINE] |  |  |  |  | Activity (Danio rerio [5]): Active; Activity (Mus musculus [6]): 223.45 ng/mL; Activity (Danio rerio [7]): Active; Activity (Mus musculus [8]): Active; Activity (Danio rerio [9]): Active; Activity (Danio rerio [10]): Active; Activity (Danio rerio [11]): Active; Activity (Mus musculus [12]): Active; Activity (Danio rerio [13]): Active |
| O=C1c2ccccc2-c2nccc3cc(OCCCCCOc4no[n+]([O-])c4S(=O)(=O)c4ccccc4)cc1c23 | > 10 µM | > 100 µM | > 100 µM | inactive |  |
| O=C1c2ccccc2-c2nccc3cc(OCCOc4no[n+]([O-])c4S(=O)(=O)c4ccccc4)cc1c23 | > 10 µM | > 100 µM | > 100 µM | inactive |  |
| O=C1c2ccccc2-c2nccc3cc(OCCCCOc4no[n+]([O-])c4S(=O)(=O)c4ccccc4)cc1c23 | > 10 µM | > 100 µM | > 100 µM | inactive |  |
| O=C1c2ccccc2-c2nccc3cc(OCCCCCO[N+](=O)[O-])cc1c23 | > 10 µM | > 100 µM | > 100 µM | Active |  |
| O=[N+]([O-])O[C@@H]1CO[C@H]2[C@@H]1OC[C@@H]2O |  |  |  |  | Activity (Mus musculus [14]): Active |
| O=C1c2ccccc2-c2nccc3cc(OCCCCCCOc4no[n+]([O-])c4S(=O)(=O)c4ccccc4)cc1c23 | > 10 µM | > 100 µM | > 100 µM | inactive |  |
| O=C1c2ccccc2-c2nccc3cc(OCCCOc4no[n+]([O-])c4S(=O)(=O)c4ccccc4)cc1c23 | > 10 µM | > 100 µM | > 100 µM | inactive |  |
